Assay results from ChEMBL document CHEMBL4000252, “Discovery of N-(2-aminoethyl)-N-benzyloxyphenyl benzamides: New potent Trypanosoma brucei inhibitors” (Bioorg Med Chem, 2017).
Activity calls are given as the source filed them. The rule behind the calls is not given here.

Tests used:
[1] = Cytotoxicity against human CRL8155 cells assessed as growth inhibition after 48 hrs by Alamar blue assay; assay type: cell-based; settings: crl8155, 48 h
[2] = system: HepG2; assay: Cytotoxicity against human HepG2 cells assessed as growth inhibition after 48 hrs by Alamar blue assay; assay type: cell-based; settings: hepg2, 48 h
[3] = molecular target: Cytochrome P450 3A4 (Homo sapiens, UniProt P08684); assay: Inhibition of human CYP3A4; assay type: ADME
[4] = system: Liver; assay: Half life in human liver microsomes at 1.5 uM by LC-MS analysis; assay type: ADME, microsome
[5] = Ratio of drug level in brain to plasma in mouse at 5 mg/kg, ip after 1 hr by LC-MS analysis; assay type: ADME, organism-based
[6] = Cmax in mouse at 50 mg/kg, po by LC-MS analysis; assay type: ADME, organism-based; set-up: dose 50 mg/kg, route oral; settings: in vivo
[7] = AUC (0 to 8 hrs) in mouse at 50 mg/kg, po by LC-MS analysis; assay type: ADME, organism-based; set-up: dose 50 mg/kg, time < 8 hr, route oral; settings: in vivo
[8] = system: Trypanosoma brucei rhodesiense; assay: Antiparasitic activity against Trypanosoma brucei rhodesiense STIB900 infected in Swiss-Webster mouse assessed as cure rate at 50 mg/kg, bid administered via oral gavage from day 2 to 5 post infection measured after 60 days by microscopic method relative to control; assay type: functional
[9] = system: Trypanosoma brucei brucei; assay: Antiparasitic activity against Trypanosoma brucei brucei BF427 assessed as growth inhibition at 16 times EC50 pretreated for 24 hrs followed by compound washout measured after 10 days by light microscopic method; assay type: functional
[10] = system: Trypanosoma brucei brucei; assay: Antiparasitic activity against Trypanosoma brucei brucei BF427 assessed as growth inhibition at 32 times EC50 pretreated for 48 hrs followed by compound washout measured after 10 days by light microscopic method; assay type: functional
[11] = system: Trypanosoma brucei brucei; assay: Antiparasitic activity against Trypanosoma brucei brucei BF427 assessed as growth inhibition at 16 times EC50 pretreated for 72 hrs followed by compound washout measured after 10 days by light microscopic method; assay type: functional
[12] = system: Trypanosoma brucei brucei; assay: Antiparasitic activity against Trypanosoma brucei brucei BF427 assessed as growth inhibition at 32 times EC50 pretreated for 96 hrs followed by compound washout measured after 10 days by light microscopic method; assay type: functional
[13] = system: Liver; assay: Half life in mouse liver microsomes at 1.5 uM by LC-MS analysis; assay type: ADME, microsome
[14] = system: Trypanosoma brucei brucei; assay: Antiparasitic activity against Trypanosoma brucei brucei BF427 assessed as growth inhibition after 48 hrs by Alamar blue assay; assay type: functional; settings: BF427, 48 h
[15] = system: Trypanosoma brucei brucei; assay: Antiparasitic activity against Trypanosoma brucei brucei TREU667 infected in mouse assessed as decrease in parasitemia at 50 mg/kg, bid administered via oral gavage on day 21 to 34 post infection measured on day 34 by microscopic method; assay type: functional, organism-based
[16] = system: Trypanosoma brucei brucei; assay: Antiparasitic activity against Trypanosoma brucei brucei TREU667 infected in mouse assessed as decrease in parasitemia at 50 mg/kg, bid administered via oral gavage on day 21 to 34 post infection measured on day 41 to 42 by microscopic method; assay type: functional, organism-based
[17] = system: Trypanosoma brucei rhodesiense; assay: Antiparasitic activity against Trypanosoma brucei rhodesiense STIB900 assessed as growth inhibition after 48 hrs by Alamar blue assay; assay type: functional; settings: STIB900, 48 h
[18] = system: Trypanosoma brucei brucei; assay: Antiparasitic activity against Trypanosoma brucei brucei BF427 assessed as growth inhibition at 32 times EC50 pretreated for 24 hrs followed by compound washout measured after 10 days by light microscopic method; assay type: functional
[19] = system: Trypanosoma brucei brucei; assay: Antiparasitic activity against Trypanosoma brucei brucei BF427 assessed as growth inhibition at 16 times EC50 pretreated for 48 hrs followed by compound washout measured after 10 days by light microscopic method; assay type: functional
[20] = system: Trypanosoma brucei brucei; assay: Antiparasitic activity against Trypanosoma brucei brucei BF427 assessed as growth inhibition at 16 times EC50 pretreated for 96 hrs followed by compound washout measured after 10 days by light microscopic method; assay type: functional
[21] = system: L6; assay: Cytotoxicity against rat L6 cells assessed as growth inhibition after 48 hrs by Alamar blue assay; assay type: cell-based; settings: l6, 48 h
[22] = system: Trypanosoma brucei brucei; assay: Antiparasitic activity against Trypanosoma brucei brucei BF427 assessed as growth inhibition at 4 times EC50 pretreated for 24 hrs followed by compound washout measured after 10 days by light microscopic method; assay type: functional
[23] = system: Trypanosoma brucei brucei; assay: Antiparasitic activity against Trypanosoma brucei brucei BF427 assessed as growth inhibition at 4 times EC50 pretreated for 48 hrs followed by compound washout measured after 10 days by light microscopic method; assay type: functional
[24] = system: Trypanosoma brucei brucei; assay: Antiparasitic activity against Trypanosoma brucei brucei BF427 assessed as growth inhibition at EC50 pretreated for 72 hrs followed by compound washout measured after 10 days by light microscopic method; assay type: functional
[25] = system: Trypanosoma brucei brucei; assay: Antiparasitic activity against Trypanosoma brucei brucei BF427 assessed as growth inhibition at EC50 pretreated for 96 hrs followed by compound washout measured after 10 days by light microscopic method; assay type: functional

Chain of Cytochrome P450 3A4 (P08684 whole entry): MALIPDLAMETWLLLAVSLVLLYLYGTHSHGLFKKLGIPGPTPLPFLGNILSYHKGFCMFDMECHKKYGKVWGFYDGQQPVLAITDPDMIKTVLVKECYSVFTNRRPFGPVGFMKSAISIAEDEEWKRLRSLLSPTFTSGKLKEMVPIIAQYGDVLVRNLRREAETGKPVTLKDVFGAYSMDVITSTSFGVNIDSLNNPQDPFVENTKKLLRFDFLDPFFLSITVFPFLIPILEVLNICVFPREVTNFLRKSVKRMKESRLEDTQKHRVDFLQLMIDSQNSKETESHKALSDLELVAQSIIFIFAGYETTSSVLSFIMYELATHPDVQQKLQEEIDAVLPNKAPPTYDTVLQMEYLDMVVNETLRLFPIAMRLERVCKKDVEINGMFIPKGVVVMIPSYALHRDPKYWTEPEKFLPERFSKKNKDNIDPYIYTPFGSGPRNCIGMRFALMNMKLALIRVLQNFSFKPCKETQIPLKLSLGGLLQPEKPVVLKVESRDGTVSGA

Row | SMILES | CC50 [1] [nM] | CC50 [2] [nM] | IC50 [3] [nM] | t1/2 [4] [h] | BPR [5] | Cmax [6] [nM] | AUC(0-t) at 8 h [7] [µM·h] | Activity [8] | growth inhibition (GI) [11] | t1/2 [13] [h] | EC50 [14] [nM] | also measured
1 | CC(C)c1ccc(COc2ccc(N(CCN)C(=O)c3ccc(Cl)cc3Cl)cc2)cc1.Cl | 3100 | 3190 | 15 | > 1 | 0.32 | 1490 | 21 | 67 - 80% | Active | – | – | growth inhibition (GI) [9]: Active; growth inhibition (GI) [10]: Active; growth inhibition (GI) [12]: Active
2 | Cl.NCCN(C(=O)c1ccc(Cl)cc1Cl)c1ccc(F)cc1 | 30000 | 40000 | 74 | – | – | – | – | – | – | > 1 | – | –
3 | Cc1cc(C)cc(COc2ccc(N(CCN)C(=O)c3ccc(Cl)cc3Cl)cc2)c1.Cl | 2450 | 4100 | 3 | > 1 | 0.18 | 5900 | 33.9 | 33% | – | – | 20 | Activity [15]: Active; Activity [16]: inactive
4 | Cl.NCCN(C(=O)c1ccc(Cl)cc1Cl)c1ccc(OCc2ccc(Cl)cc2)cc1 | 2000 | 2000 | 179 | > 1 | 0.42 | 530 | 3.42 | 67 - 80% | Active | 0.583 | 31 | EC50 [17]: 5 nM; growth inhibition (GI) [18]: Active; growth inhibition (GI) [19]: Active; growth inhibition (GI) [20]: Active
5 | NCCN(C(=O)c1ccc(Cl)cc1Cl)c1ccc(C(F)(F)F)cc1 | – | – | – | – | – | – | – | – | – | – | 1050 | CC50 [21]: 13200 nM
6 | N=C(N)c1ccc(OCCCCCOc2ccc(C(=N)N)cc2)cc1 | – | – | – | – | – | – | – | – | – | – | – | growth inhibition (GI) [22]: Active; growth inhibition (GI) [23]: Active; growth inhibition (GI) [24]: Active; growth inhibition (GI) [25]: Active
